According to patent US10342869B2, “Compositions comprising anti-CD38 antibodies and lenalidomide” (SANOFI, priority 2012, dated 2019):

Key:
[1] = tested on: NCI-H929 multiple myeloma model; experiment: NCI-H929 subcutaneous multiple myeloma xenograft mouse model; assay type: in vivo, mice; details: lenalidomide 1 mg/kg/day PO QD × 21 d; for Activity: hu38SB19 0.5 mg/kg/injection IV 2x/wk × 2 wk
Description: (§1) The subcutaneous multiple myeloma (MM) xenograft mouse models were established using H929 and RPMI8226 cell lines. Specifically, 5-6 week old female Balb/c Scid mice were obtained from Jackson Lab. Mice were housed for 7-10 days prior to implantation. Mice were housed in a dedicated room in the UCSF Mt Zion Animal Barrier Facility. NCI-H929 and RPMI-8226 cells were obtained from the German Collection of Microorganisms and Cell Cultures, DSMZ, (Deutsche Sammlung von Mikroorganismen and Zellkulturen), and grown in sterile suspension culture in T225 flasks as follows: NCI-H929:RPMI1640+20% FBS+4 mM L-glutamine+1 mM sodium pyruvate+50 μM mercaptoethanol. RPMI-8226:RPMI1640+10% FBS+4 mM L-glutamine.
(§2) At the time of implantation, mice were shaved on the right flank and shoulder region and anesthetized with ip avertin. MM cells suspended in serum free RPMI 1640 media diluted 1:1 with Matrigel (BD) at a concentration of 1×10^8 cells per ml were injected sc into the right flank in 100 μL volume (1×10^7 cells) using a 1 ml syringe and 25 g needle. Mice were monitored twice weekly for the appearance of tumors and once tumors were visible, measurements were collected twice weekly for body weight and tumor volume. Electronic balance and calipers were used and data was collected directly into a study management program (Study Director). When the mean tumor volume reached about 150-200 mm^3, the mice were distributed into treatment groups of 8-10 mice per groups and dosing was begun.
(§3) Data were collected using electronic balance and calipers using a study management application called StudyLog (Study Director).
(§4) Antitumor activity was determined according to NCI standards based on the ratio of the median tumor volume change of the treated/median tumor volume change of the control×100 (% ΔT/ΔC). Low numerical values for ΔT/ΔC describe stronger anti-tumor activity. Anti-tumor activity is defined as ΔT/ΔC≤40% at minimum. ΔT/ΔC<10% is considered high anti-tumor activity.

RPMI-8226 tumors = experiment: RPMI-8226 hind-flank xenograft model (Example 3, FIGS. 13-14); assay type: in vivo, mice; details: RPMI-8226 xenograft; hu38SB19 twice weekly × 2 wk IV; lenalidomide qdx7×3 wk PO
Procedure: Lenolidomide (TC27682) was obtained from AK Scientific Inc. (Mountain View, Calif.) and prepared as a suspension in 1% (w/v) carboxymethyl cellulose (Sigma). Preparation was made using a mortar and pestle to generate a slurry suspension in the vehicle, diluted to the appropriate concentration, and used for dosing by oral gavage. Lenalidomide was administered qdx7×3 wk PO.
Zion Animal Barrier Facility.
RPMI-8226 were cultured in RPMI1640+10% FBS+4 mM L-glutamine.

[2] = tested on: RPMI-8226 multiple myeloma model; experiment: RPMI-8226 subcutaneous multiple myeloma xenograft mouse model; details: RPMI-8226 xenograft, hu38SB19 15 mg/kg/injection IV 2x/wk × 2 wk, lenalidomide 15 mg/kg/day PO QD × 21 d
Description: as §1, §2, §3, §4

tumor cells [3] = details: reported for other CD38 antibodies; cited from earlier work
tumor cells [4] = experiment: Apoptosis induction on tumor cells (preclinical studies); assay type: cell-based; details: without cross-linking
tumor cells [5] = experiment: ADCC on tumor cells; assay type: cell-based

| Compound | % ΔT/ΔC (D69) ([1]; D69, hu38SB19 0.5 mg/kg/injection IV 2x/wk × 2 wk) | Activity [1] | Activity ([1]; listed as lenalidomide) | Tumor growth inhibition (RPMI-8226 tumors) | % ΔT/ΔC (D69) ([2]; D69) | Activity [2] | Activity ([2]; listed as lenalidomide) | Apoptosis induction (tumor cells [3]) | Pro-apoptotic activity on tumor cells (tumor cells [4]) | ADCC activity on tumor cells (tumor cells [5]) |
| --- | --- | --- | --- | --- | --- | --- | --- | --- | --- | --- |
| Nc1cccc2c1CN(C1CCC(=O)NC1=O)C2=O (racemic) [Lenalidomide, (RS)-3-(4-amino-1-oxo-3H-isoindol-2-yl)piperidine-2,6-dione] | 20% | Active | active | not robustly sensitive to single-agent therapy | 61% | Inactive | inactive |  |  |  |
| Daratumumab: CD38 antibody reported to induce apoptosis only after cross-linking |  |  |  |  |  |  |  | able to induce apoptosis only after cross-linking with a secondary antibody |  |  |
| hu38SB19: humanized anti-CD38 antibody; VH SEQ ID NO: 66, VL SEQ ID NO: 62 or 64 |  | Active |  | dose-dependent inhibition of tumor growth |  | Inactive |  |  | potent direct pro-apoptotic activity | potent ADCC |
